Test results taken from ChEMBL document CHEMBL1201862, “PubChem BioAssay data set” (2004).
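Step 1: Grow cells in 96-well plates. Step 2: Expose to compound for 48 hours at 5 concentrations. Step 3: Interpolate endpoints linearly; if unreached, use highest concentration. GI50 = concentration required for 50% inhibition of growth.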 Activity calls are given as the source filed them. Cut-off read from the data, not from the text of the source: active = GI50 up to about 1.1 µM and inactive = higher.

Experiments:
Assay in all cases: inhibition of tumour cell growth, NCI panel, 48 h
KM12 = test system: KM12
OVCAR-3 = test system: OVCAR-3
SK-OV-3 = test system: SK-OV-3
SR = test system: SR
ACHN = test system: ACHN
OVCAR-4 = test system: OVCAR-4
UACC-257 = test system: UACC-257
DU-145 = test system: DU-145
SK-MEL-2 = test system: SK-MEL-2
OVCAR-5 = test system: OVCAR-5
TK-10 = test system: TK-10
T47D = test system: T47D
SNB-19 = test system: SNB-19
MDA-MB-435 = test system: MDA-MB-435
BT-549 = test system: BT-549
HOP-62 = test system: HOP-62
CCRF-CEM = test system: CCRF-CEM
HCC 2998 = test system: HCC 2998
LOX IMVI = test system: LOX IMVI
MDA-N = test system: MDA-N

| SMILES | GI50 (KM12) | GI50 (OVCAR-3) | GI50 (SK-OV-3) | GI50 (SR) | GI50 (ACHN) | GI50 (OVCAR-4) | GI50 (UACC-257) | GI50 (DU-145) | GI50 (SK-MEL-2) | GI50 (OVCAR-5) | GI50 (TK-10) | GI50 (T47D) | GI50 (SNB-19) | GI50 (MDA-MB-435) | GI50 (BT-549) | GI50 (HOP-62) | GI50 (CCRF-CEM) | GI50 (HCC 2998) | GI50 (LOX IMVI) | GI50 (MDA-N) |
| --- | --- | --- | --- | --- | --- | --- | --- | --- | --- | --- | --- | --- | --- | --- | --- | --- | --- | --- | --- | --- |
| COc1cc(O)ccc1C(=S)SC | 69.7 µM (inactive) | 62.4 µM (inactive) | > 100 µM (inactive) | 43.2 µM (inactive) | 68.2 µM (inactive) | 52 µM (inactive) | 51.5 µM (inactive) | > 100 µM (inactive) | > 100 µM (inactive) | > 100 µM (inactive) | 60.4 µM (inactive) | 70.3 µM (inactive) | 78.2 µM (inactive) | 68.5 µM (inactive) | > 100 µM (inactive) | > 100 µM (inactive) | – | – | – | – |
| CC(=O)O[C@H]1C(=O)[C@@]2(C)[C@H]([C@H](OC(=O)c3ccccc3)[C@]3(O)C[C@H](OC(=O)[C@H](O)[C@@H](NC(=O)CC(C)(C)C)c4ccccc4)C(C)=C1C3(C)C)C1(OC(C)=O)CO[C@@H]1C[C@@H]2O (stereo partly specified) | – | – | 0.00171 µM (active) | – | 0.0764 µM (active) | > 10 µM (inactive) | 0.00684 µM (active) | 0.00836 µM (active) | 0.002 µM (active) | – | 0.047 µM (active) | 0.00908 µM (active) | 0.122 µM (active) | < 0.001 µM (active) | 0.0968 µM (active) | 0.00671 µM (active) | 0.00171 µM (active) | 0.00231 µM (active) | 0.00175 µM (active) | 0.1 µM (active) |
| C/C(=N\c1cccc(Cl)c1)c1ccncc1 | > 100 µM (inactive) | > 100 µM (inactive) | > 100 µM (inactive) | – | > 100 µM (inactive) | > 100 µM (inactive) | > 10 µM (inactive) | > 100 µM (inactive) | > 100 µM (inactive) | > 100 µM (inactive) | > 100 µM (inactive) | > 100 µM (inactive) | > 100 µM (inactive) | > 100 µM (inactive) | > 100 µM (inactive) | > 100 µM (inactive) | > 100 µM (inactive) | > 100 µM (inactive) | > 100 µM (inactive) | > 100 µM (inactive) |
| CN(C)CCNC(=O)c1cccc(NC(=O)c2ccccc2)c1[N+](=O)[O-] | > 100 µM (inactive) | 27.7 µM (inactive) | > 100 µM (inactive) | – | > 100 µM (inactive) | – | > 100 µM (inactive) | > 10 µM (inactive) | > 100 µM (inactive) | > 100 µM (inactive) | > 100 µM (inactive) | > 100 µM (inactive) | > 100 µM (inactive) | > 100 µM (inactive) | 53.8 µM (inactive) | > 100 µM (inactive) | > 100 µM (inactive) | > 100 µM (inactive) | – | > 100 µM (inactive) |
| CN(C)c1nncc2[nH]nnc12 | > 100 µM (inactive) | > 100 µM (inactive) | > 100 µM (inactive) | > 100 µM (inactive) | > 100 µM (inactive) | > 100 µM (inactive) | > 100 µM (inactive) | – | > 100 µM (inactive) | > 100 µM (inactive) | > 100 µM (inactive) | > 100 µM (inactive) | – | > 100 µM (inactive) | > 100 µM (inactive) | > 100 µM (inactive) | > 100 µM (inactive) | > 100 µM (inactive) | > 100 µM (inactive) | > 100 µM (inactive) |
| COC(=O)c1c(O)c(C#N)c2[nH]c3ccccc3n2c1=O | > 100 µM (inactive) | > 100 µM (inactive) | > 100 µM (inactive) | > 100 µM (inactive) | > 100 µM (inactive) | > 100 µM (inactive) | > 100 µM (inactive) | > 100 µM (inactive) | > 100 µM (inactive) | > 100 µM (inactive) | > 100 µM (inactive) | – | > 100 µM (inactive) | > 100 µM (inactive) | > 100 µM (inactive) | > 100 µM (inactive) | > 100 µM (inactive) | > 100 µM (inactive) | – | > 100 µM (inactive) |
| N/C(=N\c1ccc(Cl)cc1)c1ccccc1N | > 100 µM (inactive) | > 100 µM (inactive) | > 100 µM (inactive) | > 100 µM (inactive) | > 100 µM (inactive) | > 100 µM (inactive) | > 100 µM (inactive) | > 100 µM (inactive) | – | > 100 µM (inactive) | > 100 µM (inactive) | – | > 100 µM (inactive) | > 100 µM (inactive) | > 100 µM (inactive) | > 100 µM (inactive) | > 100 µM (inactive) | > 100 µM (inactive) | > 100 µM (inactive) | > 100 µM (inactive) |
| N=C(N)C1CN(CCCCCCCCCCN2CC(C(=N)N)C(O)=NC2=O)C(=O)N=C1O (stereo unspecified) | > 10 µM (inactive) | > 10 µM (inactive) | > 10 µM (inactive) | > 10 µM (inactive) | > 10 µM (inactive) | > 10 µM (inactive) | > 10 µM (inactive) | – | > 10 µM (inactive) | > 10 µM (inactive) | > 10 µM (inactive) | > 10 µM (inactive) | > 10 µM (inactive) | > 10 µM (inactive) | > 10 µM (inactive) | > 10 µM (inactive) | > 10 µM (inactive) | > 10 µM (inactive) | > 10 µM (inactive) | > 10 µM (inactive) |
